Test results: US4683245A, “Laevorotatory antipode of moprolol as an antihypertensive” (SIMES S.p.A. Societa Italiana Medicinali e Sintetici, priority 1979, dated 1987)
Like-named read-outs stand apart in the source and are kept apart here.

What was measured:
[1] = tested on: adrenergic beta-receptors; assay: Median effective Dose (ED50) in the dog; format: in vivo
Text: The data given in Table I evidence similar toxicity of the three different compounds.
In this regard the following Table II gives the respective data for the three compounds (±); (-); (+).

[2] = tested on: spontaneously beating right atrium preparations; assay: chronotropic effect on spontaneously beating right atria from reserpinized guinea-pigs; design: species or system guinea-pig
Procedure: Experiments were carried out on spontaneously beating right atrium preparations taken from the hearts of guinea-pigs of both sexes, weighing 300 to 400 g.
Twenty hrs before sacrifice the animals were injected intramuscularly with reserpine dissolved in 20% ascorbic acid in 2 doses of 2 mg/kg each at 24 hrs distance. An equal number of animals received the reserpine solvent only and were kept as controls.
The preparations were suspended in 10 ml vessels containing Krebs-Henseleitsolution aerated with […] and maintained at a temperature of 35° C.
The right atria were fixed to the vessel base by one end and connected to a transducer of a semiisometric microdynanometer (Basile) by the other end.
Heart rate was recorded directly from the tracing.
All the preparations were subjected to a reset traction of 0.6-0.8 g and allowed to stabilize for 1 hr before starting experiments.
The substances were placed in the vessel in cumulative concentrations. Each concentration was increased by three times as compared with the previous one and a 10 min. interspace was left between concentrations.
The control preparations were made by replacing in the vessel the only solvent (H2 O) in the same volumes as for the drug solutions. The effect excerted by the drug and the solvent on atrial rate was evaluated as per-cent variation as compared with baseline values. The significance of the differences between treated and control animals was assessed by Dunnett's test.
***In order to be able to compare the effect of combined doses of the
enantiomers with those of equal doses of the single enantiomers racemic
moprolol was used in concentration double with respect to the single

[3] = Lethal Dose50 (LD50) in the mouse; format: in vivo; details: mouse, in vivo, in the mouse
Text: (§1) In this regard the following Table I reports the LD50 of the single isomers and of the racemic product.

[4] = tested on: adrenergic beta-receptors; assay: inhibition of hemodynamic effects of isoproterenol (beta-receptor stimulation) in anesthetized dogs; format: in vivo, dog; details: isoproterenol 0.25 μg/Kg/minute i.v.; for beta-blocking activity (in words): anesthetized dogs, duodenal administration
Text: In order better to clarify the advantages connected with the use of pharmaceutical compositions according to the present invention, the attached drawings include three diagrams relating to certain experiments conducted in anesthetized dogs. These diagrams concern the inhibition by recemic moprolol, it laevorotatory optical isomer and its dextro-rotatory optical isomer, of certain homodynamic effects due to stimulation of the adrenergic beta-receptors following on intravenous infusion of isoproterenol at a dose of 0.25 μg/Kg/minute.
The curves therein reported refer to the means of the results of three tests for each substance.

mouse = assay: Lethal Dose50 (LD50) in the mouse; format: in vivo
Text: as §1

[5] = listed as laevorotatory moprolol
[6] = reserpinized guinea-pig right atrium
[7] = Cavia porcellus, read-out: Chronotropic effect (% variation)

COc1ccccc1OCC(O)CNC(C)C (racemic) [Moprolol (±), 1-(o-methoxy-phenoxy)-3-isopropyl-amino-propane-2-ol]
Median effective Dose (ED50) [1]: 0.150 mg/kg weight animal | cardiac action (in words) [2]: cardiac depressant action | activation at 0.01 µM ([2]; Cavia porcellus, column 1 × 10^-8, racemate used in double concentration vs single enantiomers, read-out: Chronotropic effect (% variation)): 0% | LD50 [3]: 712 mg/kg

COc1ccccc1OCC(O)CNC(C)C (single isomer, unassigned) [Moprolol (+)]
Median effective Dose (ED50) [1]: nil | activity at effective dose (in words) [1]: without any activity whatsoever | Chronotropic effect (% variation) ([2]; 1 × 10^-4 M, vs baseline, mean ± S.E., listed as d-moprolol): -37.5% | Chronotropic effect (% variation) ([2]; 1 × 10^-5 M, vs baseline, mean ± S.E., listed as d-moprolol): -7.25% | Chronotropic effect (% variation) ([2]; 1 × 10^-6 M, vs baseline, mean ± S.E., listed as d-moprolol): -2% | Chronotropic effect (% variation) ([2]; 1 × 10^-7 M, vs baseline, mean ± S.E., listed as d-moprolol): -2.7% | Chronotropic effect (% variation) ([2]; 1 × 10^-8 M, vs baseline, mean ± S.E., listed as d-moprolol): -1.25% | Chronotropic effect (% variation) ([2]; 3 × 10^-5 M, vs baseline, mean ± S.E., listed as d-moprolol): -14.7% | Chronotropic effect (% variation) ([2]; 3 × 10^-6 M, vs baseline, mean ± S.E., listed as d-moprolol): -6% | Chronotropic effect (% variation) ([2]; 3 × 10^-7 M, vs baseline, mean ± S.E., listed as d-moprolol): -2.7% | Chronotropic effect (% variation) ([2]; 3 × 10^-8 M, vs baseline, mean ± S.E., listed as d-moprolol): -4% | effect on atrial rate (in words) ([2]; reserpinized guinea-pig right atrium, listed as Dextro-rotatory isomer of moprolol): no stimulant effect in a range of concentrations which have proved to be active for laevorotatory isomer of moprolol. On the contrary, they give rise to a depressant effect | beta-blocking activity (in words) ([4]; listed as dextro-rotatory isomer): practically nil | beta-blocking activity (in words) ([4]; listed as dextrorotatory optical isomer): almost complete lack of beta-blocking activity | toxicity (in words) (mouse; LD50, mouse): same toxicity as the laevorotatory isomer and the racemic form | Lethal Dose50 (LD50) (mouse; in the mouse): 720 mg/kg weight animal

COc1ccccc1OCC(O)CNC(C)C (single isomer, unassigned) [Moprolol (-)]
Median effective Dose (ED50) [1]: 0.0781 mg/kg weight animal | activity relative to the racemic form (times more active) ([1]; effective dose): 2 times | Median effective Dose (ED50) [1, 5]: 0.0781 mg/kg weight animal | cardiac action (in words) [2]: cardiac stimulant action | Chronotropic effect (% variation) ([2]; 1 × 10^-4 M, vs baseline, mean ± S.E., listed as 1-moprolol): -10.8% | Chronotropic effect (% variation) ([2]; 1 × 10^-5 M, vs baseline, mean ± S.E., listed as 1-moprolol): +4% | Chronotropic effect (% variation) ([2]; 1 × 10^-6 M, vs baseline, mean ± S.E., listed as 1-moprolol): +8.8% | Chronotropic effect (% variation) ([2]; 1 × 10^-7 M, vs baseline, mean ± S.E., listed as 1-moprolol): +10.4% | Chronotropic effect (% variation) ([2]; 1 × 10^-8 M, vs baseline, mean ± S.E., listed as 1-moprolol): +8.2% | Chronotropic effect (% variation) ([2]; 3 × 10^-5 M, vs baseline, mean ± S.E., listed as 1-moprolol): +0.2% | Chronotropic effect (% variation) ([2]; 3 × 10^-6 M, vs baseline, mean ± S.E., listed as 1-moprolol): +7.8% | Chronotropic effect (% variation) ([2]; 3 × 10^-7 M, vs baseline, mean ± S.E., listed as 1-moprolol): +10.4% | Chronotropic effect (% variation) ([2]; 3 × 10^-8 M, vs baseline, mean ± S.E., listed as 1-moprolol): +11.4% | concentration range of stimulant effect on atrial rate [2, 6]: 10 to 1000 nM | effect on atrial rate (in words) ([2]; reserpinized guinea-pig right atrium, listed as Laevorotatory isomer of moprolol): causes a stimulant effect on atrial rate | significance (P) of correlation coefficient of dose-dependent inhibition ([4]; 0.25, 0.0625 and 0.125 mg/kg): < 0.01 | beta-blocking activity (in words) ([4]; listed as laevoratatory isomer of moprolol): exactly double that of racemic moprolol | beta-blocking activity (in words) [4, 5]: particularly evident for the laevorotatory form in a dose-dependent manner | LD50 [3]: 605 mg/kg

Cl.NCCc1ccc(O)cc1 [Tyramine HCl]
activation at 0.1 µM [2, 7]: 0% | activation at 0.3 µM [2, 7]: 0% | activation at 1 µM [2, 7]: 0% | activation at 3 µM [2, 7]: 0% | activation at 10 µM [2, 7]: -1 ± 1% | activation at 30 µM [2, 7]: -3% | activation at 100 µM [2, 7]: -3% | effect on atrial rate (in words) [2, 6]: devoid of positive chronotropic effect

CC(C)NCC(O)COc1cccc2ccccc12 (single isomer, unassigned) [Moprolol 1-propanolol]
atr. block (preparations blocked / total) ([2]; 1 × 10^-4 M): 4/4 | Chronotropic effect (% variation) ([2]; 1 × 10^-4 M, vs baseline, mean ± S.E.): atr. block | activation at 10 µM ([2]; Cavia porcellus, 1 × 10^-5 M, vs baseline, mean ± S.E., read-out: Chronotropic effect (% variation)): -21.5% | activation at 1 µM ([2]; Cavia porcellus, 1 × 10^-6 M, vs baseline, mean ± S.E., read-out: Chronotropic effect (% variation)): -5.7% | activation at 0.1 µM ([2]; Cavia porcellus, 1 × 10^-7 M, vs baseline, mean ± S.E., read-out: Chronotropic effect (% variation)): -2% | activation at 0.01 µM ([2]; Cavia porcellus, 1 × 10^-8 M, vs baseline, mean ± S.E., read-out: Chronotropic effect (% variation)): -0.5% | activation at 30 µM ([2]; Cavia porcellus, 3 × 10^-5 M, vs baseline, mean ± S.E., read-out: Chronotropic effect (% variation)): -37% | activation at 3 µM ([2]; Cavia porcellus, 3 × 10^-6 M, vs baseline, mean ± S.E., read-out: Chronotropic effect (% variation)): -11.2% | activation at 0.3 µM ([2]; Cavia porcellus, 3 × 10^-7 M, vs baseline, mean ± S.E., read-out: Chronotropic effect (% variation)): -3.5% | activation at 0.03 µM ([2]; Cavia porcellus, 3 × 10^-8 M, vs baseline, mean ± S.E., read-out: Chronotropic effect (% variation)): -0.75% | minimal effective concentration ([2]; Cavia porcellus, reserpinized guinea-pig right atrium, read-out: concentration from which depressant effect on atrial rate starts): ≥ 1 µM | effect on atrial rate (in words) ([2]; reserpinized guinea-pig right atrium, listed as Laevorotatory isomer of propanolol): no stimulant effect but a depressant effect | effect on atrial rate (in words) ([2]; reserpinized guinea-pig right atrium, listed as laevorotatory isomer of propanolol): more marked than that evoked by laevorotatory isomer, dextro-rotatory isomer and racemic moprolol
